Target: hDGAT2 (Homo sapiens (Human), UniProt Q96PD7)
Test: DGAT2 Enzymatic Activity Assay
Type: biochemical
Conditions: hDGAT2 Sf-9 membrane prep; 25 μM diolein, 10 μM oleoyl-CoA; triolein product by LC/MS/MS; read-out: IC50 values for inhibition of DGAT2
Summary of the method: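 Membranes from Sf-9 cells expressing untagged hDGAT2 (10 ng/μL) incubated at room temperature with 25 μM diolein and 10 μM oleoyl-CoA in 100 mM Tris pH 7.0, 20 mM MgCl2, 5% ethanol. Triolein product quantified by LC/MS/MS against spiked internal standard; IC50 from 4-parameter sigmoidal fit.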

Sequence of hDGAT2 (Q96PD7 whole entry): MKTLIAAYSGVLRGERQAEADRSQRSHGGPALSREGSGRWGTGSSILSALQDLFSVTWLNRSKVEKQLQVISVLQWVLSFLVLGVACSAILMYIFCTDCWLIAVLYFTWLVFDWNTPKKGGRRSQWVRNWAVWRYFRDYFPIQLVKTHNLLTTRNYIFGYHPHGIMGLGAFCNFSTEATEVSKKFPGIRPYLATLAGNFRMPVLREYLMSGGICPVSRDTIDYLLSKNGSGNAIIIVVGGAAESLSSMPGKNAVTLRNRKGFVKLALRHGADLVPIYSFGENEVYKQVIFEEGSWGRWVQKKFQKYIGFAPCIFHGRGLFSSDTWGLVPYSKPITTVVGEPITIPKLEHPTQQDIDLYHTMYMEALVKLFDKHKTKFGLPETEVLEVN

| Compound | IC50 [nM] |
| --- | --- |
| Cc1noc([C@@H]2C[C@H]2C(=O)NCc2ccc(-c3cccc(OC(F)(F)F)c3)c3c2CN(CC(=O)N2COCC2(C)C)CC3)n1 (relative stereo) [Example 103, (trans)-N-((2-(2-(4,4-dimethyloxazolidin-3-yl)-2-oxoethyl)-5-(3-(trifluoromethoxy)phenyl)-1,2,3,4-tetrahydroisoquinolin-8-yl)methyl)-2-(3-methyl-1,2,4-oxadiazol-5-yl)cyclopropanecarboxamide] | 1760 |
| COC(=O)c1cccc(-c2ccc(CNC(=O)C3CC3c3ccccc3)c3c2CCN(C(=O)CCC(F)(F)F)C3)c1 (stereo not shown) [Example 127, methyl 3-(8-((2-phenylcyclopropanecarboxamido)methyl)-2-(4,4,4-trifluorobutanoyl)-1,2,3,4-tetrahydroisoquinolin-5-yl)benzoate] | 1220 |
| Cc1noc([C@@H]2C[C@H]2C(=O)NCc2ccc(-c3cccc(C(F)(F)F)c3)c3c2CN(C(=O)NC2(C)COC2)CC3)n1 (relative stereo) [Example 69, 8-(((trans)-2-(3-methyl-1,2,4-oxadiazol-5-yl)cyclopropanecarboxamido)methyl)-N-(3-methyloxetan-3-yl)-5-(3-(trifluoromethyl)phenyl)-3,4-dihydroisoquinoline-2(1H)-carboxamide] | 19.6 |
| Cn1nnc2ccc(-c3ccc(CNC(=O)[C@@H]4C[C@H]4c4ccccc4)c4c3CCN(C(=O)NC(C)(C)C)C4)cc21 (relative stereo) [Example 33, N-(tert-butyl)-5-(1-methyl-1H-benzo[d][1,2,3]triazol-6-yl)-8-(((trans)-2-phenylcyclopropanecarboxamido)methyl)-3,4-dihydroisoquinoline-2(1H)-carboxamide] | 2860 |
| CC(C)(C)NC(=O)N1CCc2c(-c3cccc(-n4cncn4)c3)ccc(CNC(=O)[C@@H]3C[C@H]3c3ccccc3)c2C1 (relative stereo) [Example 50, 5-(3-(1H-1,2,4-triazol-1-yl)phenyl)-N-(tert-butyl)-8-(((trans)-2-phenylcyclopropanecarboxamido)methyl)-3,4-dihydroisoquinoline-2(1H)-carboxamide] | 9.3 |
| CC(C)(C)NC(=O)N1CCc2c(-c3cccc(OC(F)(F)F)c3)ccc(CNC(=O)C3CC3c3cccnc3)c2C1 (stereo not shown) [Example 4, N-(tert-butyl)-8-((2-(pyridin-3-yl)cyclopropanecarboxamido)methyl)-5-(3-(trifluoromethoxy)phenyl)-3,4-dihydroisoquinoline-2(1H)-carboxamide] | 11.7 |
| CC(C)(C)NC(=O)N1CCc2c(-c3cccc(C(=O)NC4CC4)c3)ccc(CNC(=O)[C@@H]3C[C@H]3c3ccccc3)c2C1 (relative stereo) [Example 38, N-(tert-butyl)-5-(3-(cyclopropylcarbamoyl)phenyl)-8-(((trans)-2-phenylcyclopropanecarboxamido)methyl)-3,4-dihydroisoquinoline-2(1H)-carboxamide] | 1430 |
| Cc1noc(C2CC2C(=O)NCc2ccc(-c3cccc(OC(F)(F)F)c3)c3c2CN(CC(=O)NC2CCC2)CC3)n1 (stereo not shown) [Example 87, N-((2-(2-(cyclobutylamino)-2-oxoethyl)-5-(3-(trifluoromethoxy)phenyl)-1,2,3,4-tetrahydroisoquinolin-8-yl)methyl)-2-(3-methyl-1,2,4-oxadiazol-5-yl)cyclopropanecarboxamide] | 4220 |
| CC(C)(C)NC(=O)N1CCc2c(-c3cccc(OC(F)(F)F)c3)ccc(CNC(=O)[C@H]3C[C@@H]3c3ccccc3)c2C1 (relative stereo) [Example 9, N-(tert-butyl)-8-(((trans)-2-phenylcyclopropanecarboxamido)methyl)-5-(3-(trifluoromethoxy)phenyl)-3,4-dihydroisoquinoline-2(1H)-carboxamide] | 31 |
| CC(C)(C)NC(=O)N1CCc2c(-c3cncc(C(F)(F)F)c3)ccc(CNC(=O)[C@@H]3C[C@H]3c3ccccc3)c2C1 (relative stereo) [Example 47, N-(tert-butyl)-8-(((trans)-2-phenylcyclopropanecarboxamido)methyl)-5-(5-(trifluoromethyl)pyridin-3-yl)-3,4-dihydroisoquinoline-2(1H)-carboxamide] | 173 |

Source: patent publication US10568876B2, “Tetrahydroisoquinoline derivatives useful as inhibitors of diacylglyceride O-acyltransferase 2” (Merck Sharp & Dohme Corp., priority 2014, dated 2020)
